Reference: article PMC5218480 (PLoS ONE, 2017)

Tested on: MV-4-11 cells
Assay: Gene expression microarray analysis (Affymetrix PrimeView) and GSEA
Format: cell-based, human
Design: RFU PODN (11730768_x_at) / Fold change /veh PODN (11730768_x_at) / RFU LINC00158 (11744669_a_at) / Fold change /veh LINC00158 (11744669_a_at) / RFU DUSP10 (11751237_a_at) / Fold change /veh DUSP10 (11751237_a_at) / RFU ID3 (11757404_x_at) / Fold change /veh ID3 (11757404_x_at) / RFU PLEKHG5 (11737974_s_at) / Fold change /veh PLEKHG5 (11737974_s_at) / RFU LRRC4B (11730491_at) / Fold change /veh LRRC4B (11730491_at) / RFU GIMAP4 (11747438_a_at) / Fold change /veh GIMAP4 (11747438_a_at) / RFU KRT8 (11758183_x_at) / Fold change /veh KRT8 (11758183_x_at) / RFU CNN1 (11734310_a_at) / Fold change /veh CNN1 (11734310_a_at) / RFU VPS37D (11726825_at) / Fold change /veh VPS37D (11726825_at) / RFU C10orf10 (11716522_x_at) / Fold change /veh C10orf10 (11716522_x_at) / RFU KIR2DL2 /// KIR2DL4 /// KIR2DL5A /// KIR2DL5B /// KIR2DS1 /// KIR2DS2 /// KIR2DS3 /// KIR2DS4 /// KIR3DL3 /// KIR3DL3 /// KIR3DS1 (11738374_at) / Fold change /veh KIR2DL2 /// KIR2DL4 /// KIR2DL5A /// KIR2DL5B /// KIR2DS1 /// KIR2DS2 /// KIR2DS3 /// KIR2DS4 /// KIR3DL3 /// KIR3DL3 /// KIR3DS1 (11738374_at) / RFU C1QL1 (11718748_at) / Fold change /veh C1QL1 (11718748_at) / RFU TMPRSS4 (11747572_a_at) / Fold change /veh TMPRSS4 (11747572_a_at) / RFU HAMP (11756126_x_at) / Fold change /veh HAMP (11756126_x_at) / RFU RNFT2 (11725882_a_at) / Fold change /veh RNFT2 (11725882_a_at) / RFU NR4A2 (11747474_a_at) / Fold change /veh NR4A2 (11747474_a_at) / RFU ABCC12 (11746883_a_at) / Fold change /veh ABCC12 (11746883_a_at) / RFU TMEM136 (11760407_x_at) / Fold change /veh TMEM136 (11760407_x_at) / RFU CLDN22 /// WWC2 (11732394_at) / Fold change /veh CLDN22 /// WWC2 (11732394_at) / RFU HLA-DPB1 (11760878_x_at) / Fold change /veh HLA-DPB1 (11760878_x_at) / RFU SPINT1 (11716480_a_at) / Fold change /veh SPINT1 (11716480_a_at) / RFU GAP43 (11754022_s_at) / Fold change /veh GAP43 (11754022_s_at) / RFU A4GNT (11735810_at) / Fold change /veh A4GNT (11735810_at) / RFU PRB3 (11715151_x_at) / Fold change /veh PRB3 (11715151_x_at) / RFU TUBB4B (11761932_at) / Fold change /veh TUBB4B (11761932_at) / RFU CAPN14 (11732068_a_at) / Fold change /veh CAPN14 (11732068_a_at) / RFU TMCC2 (11721928_a_at) / Fold change /veh TMCC2 (11721928_a_at) / RFU IRGQ (11745062_a_at) / Fold change /veh IRGQ (11745062_a_at) / RFU FAM174B (11720279_a_at) / Fold change /veh FAM174B (11720279_a_at) / RFU TMPRSS4 (11748680_a_at) / Fold change /veh TMPRSS4 (11748680_a_at) / RFU FAM212B (11763350_a_at) / Fold change /veh FAM212B (11763350_a_at) / RFU PLEKHG5 (11743358_a_at) / Fold change /veh PLEKHG5 (11743358_a_at) / RFU ZSCAN30 (11745921_a_at) / Fold change /veh ZSCAN30 (11745921_a_at) / RFU CMKLR1 (11741424_a_at) / Fold change /veh CMKLR1 (11741424_a_at) / RFU LOC101060620 /// MAPK8IP1 (11723275_at) / Fold change /veh LOC101060620 /// MAPK8IP1 (11723275_at) / RFU SPTSSB (11747773_x_at) / Fold change /veh SPTSSB (11747773_x_at) / RFU PRSS12 (11739890_at) / Fold change /veh PRSS12 (11739890_at) / RFU BIN1 (11741810_x_at) / Fold change /veh BIN1 (11741810_x_at) / RFU WNT11 (11732464_a_at) / Fold change /veh WNT11 (11732464_a_at) / RFU C10orf10 (11716521_a_at) / Fold change /veh C10orf10 (11716521_a_at) / RFU C5orf56 (11738089_at) / Fold change /veh C5orf56 (11738089_at) / RFU CYB561 (11721691_x_at) / Fold change /veh CYB561 (11721691_x_at) / RFU ANKRD19P (11752326_a_at) / Fold change /veh ANKRD19P (11752326_a_at) / RFU OR2T12 /// OR2T33 /// OR2T8 (11738714_s_at) / Fold change /veh OR2T12 /// OR2T33 /// OR2T8 (11738714_s_at) / RFU VCAN (11748164_a_at) / Fold change /veh VCAN (11748164_a_at) / RFU JSRP1 (11732532_at) / Fold change /veh JSRP1 (11732532_at) / RFU KRTAP10-11 (11738290_x_at) / Fold change /veh KRTAP10-11 (11738290_x_at) / RFU MYO3A (11730013_a_at) / Fold change /veh MYO3A (11730013_a_at) / RFU EBF3 (11725865_a_at) / Fold change /veh EBF3 (11725865_a_at) / RFU CAMK2N1 (11719241_x_at) / Fold change /veh CAMK2N1 (11719241_x_at) / RFU C5orf56 (11738088_a_at) / Fold change /veh C5orf56 (11738088_a_at) / RFU OLFML3 (11715873_a_at) / Fold change /veh OLFML3 (11715873_a_at) / RFU LOC100653217 /// NTM (11731650_a_at) / Fold change /veh LOC100653217 /// NTM (11731650_a_at) / RFU MAPK11 (11762145_a_at) / Fold change /veh MAPK11 (11762145_a_at) / RFU FIZ1 (11724087_x_at) / Fold change /veh FIZ1 (11724087_x_at) / RFU OASL (11726364_x_at) / Fold change /veh OASL (11726364_x_at) / RFU SOX15 (11748057_x_at) / Fold change /veh SOX15 (11748057_x_at) / RFU CD79A (11719716_a_at) / Fold change /veh CD79A (11719716_a_at) / RFU HIST1H1D (11736915_at) / Fold change /veh HIST1H1D (11736915_at) / RFU CASKIN2 (11723855_a_at) / Fold change /veh CASKIN2 (11723855_a_at) / RFU LOC730098 (11760151_x_at) / Fold change /veh LOC730098 (11760151_x_at) / RFU OR4N2 (11742367_at) / Fold change /veh OR4N2 (11742367_at) / RFU PRRT2 (11749266_a_at) / Fold change /veh PRRT2 (11749266_a_at) / RFU SNX32 (11753110_a_at) / Fold change /veh SNX32 (11753110_a_at) / RFU CDHR5 (11726645_a_at) / Fold change /veh CDHR5 (11726645_a_at) / RFU RCAN1 (11760418_a_at) / Fold change /veh RCAN1 (11760418_a_at) / RFU FAM167A (11723789_a_at) / Fold change /veh FAM167A (11723789_a_at) / RFU FAM26E (11764081_at) / Fold change /veh FAM26E (11764081_at) / RFU ISYNA1 (11749810_s_at) / Fold change /veh ISYNA1 (11749810_s_at) / RFU ACY1 (11761880_at) / Fold change /veh ACY1 (11761880_at) / RFU 11764098_at / Fold change /veh 11764098_at / RFU SAMD14 (11745864_x_at) / Fold change /veh SAMD14 (11745864_x_at) / RFU NPB (11741838_a_at) / Fold change /veh NPB (11741838_a_at) / RFU TMPRSS6 (11731388_a_at) / Fold change /veh TMPRSS6 (11731388_a_at) / RFU KRTAP10-2 (11738614_at) / Fold change /veh KRTAP10-2 (11738614_at) / RFU ARHGAP8 /// PRR5-ARHGAP8 (11727945_x_at) / Fold change /veh ARHGAP8 /// PRR5-ARHGAP8 (11727945_x_at) / RFU KRTAP5-7 /// NADSYN1 (11734609_at) / Fold change /veh KRTAP5-7 /// NADSYN1 (11734609_at) / RFU RASL12 (11751679_a_at) / Fold change /veh RASL12 (11751679_a_at) / RFU CDKN2B (11736163_a_at) / Fold change /veh CDKN2B (11736163_a_at) / RFU PRF1 (11729649_at) / Fold change /veh PRF1 (11729649_at) / RFU, ZNF638 /// ZNF638-IT1 / Fold change vs veh, ZNF638 /// ZNF638-IT1 / RFU, PANK3 / Fold change vs veh, PANK3 / RFU, SH3YL1 / Fold change vs veh, SH3YL1 / RFU, ZEB2 / Fold change vs veh, ZEB2 / RFU, NRIP1 / Fold change vs veh, NRIP1 / RFU, PTTG1IP / Fold change vs veh, PTTG1IP / RFU, CAPN2 / Fold change vs veh, CAPN2 / RFU, MED14 / Fold change vs veh, MED14 / RFU, SNORA58 / Fold change vs veh, SNORA58 / RFU, C1orf63 / Fold change vs veh, C1orf63 / RFU, LRRFIP1 / Fold change vs veh, LRRFIP1 / RFU, NDUFAF7 / Fold change vs veh, NDUFAF7 / RFU, SLC12A2 / Fold change vs veh, SLC12A2 / RFU, IBTK / Fold change vs veh, IBTK / RFU, ESF1 / Fold change vs veh, ESF1 / Fold change vs veh, TMEM50B / RFU, TAOK1 / Fold change vs veh, TAOK1 / RFU, ACBD3 / Fold change vs veh, ACBD3 / RFU, TMA16 / Fold change vs veh, TMA16 / RFU, RWDD3 / Fold change vs veh, RWDD3 / RFU, BCAT1 / Fold change vs veh, BCAT1 / RFU, EDEM3 / Fold change vs veh, EDEM3 / RFU, TMEM33 / Fold change vs veh, TMEM33 / RFU, WDR75 / Fold change vs veh, WDR75 / RFU, AHCTF1 / Fold change vs veh, AHCTF1 / RFU, TFRC / Fold change vs veh, TFRC / RFU, ZDHHC17 / Fold change vs veh, ZDHHC17 / RFU, NOM1 / Fold change vs veh, NOM1 / RFU, ARL8B / Fold change vs veh, ARL8B / RFU, ZBTB11 / Fold change vs veh, ZBTB11 / RFU, TAMM41 / Fold change vs veh, TAMM41 / RFU, KIAA1704 /// LOC100996395 / Fold change vs veh, KIAA1704 /// LOC100996395 / RFU, ING1 / Fold change vs veh, ING1 / RFU, TRMT61B / Fold change vs veh, TRMT61B / RFU, FUBP3 / Fold change vs veh, FUBP3 / RFU, TP53 / Fold change vs veh, TP53 / RFU, TNKS2 / Fold change vs veh, TNKS2 / RFU, ZFP14 / Fold change vs veh, ZFP14 / RFU, ACTR2 / Fold change vs veh, ACTR2 / RFU, PPP3R1 / Fold change vs veh, PPP3R1 / RFU, PIK3R1 / Fold change vs veh, PIK3R1 / RFU, HNRNPA1 / Fold change vs veh, HNRNPA1 / RFU, RNF170 / Fold change vs veh, RNF170 / RFU, ZNF28 / Fold change vs veh, ZNF28 / RFU, RNGTT / Fold change vs veh, RNGTT / RFU, OGT / Fold change vs veh, OGT / RFU, BRD1 / Fold change vs veh, BRD1 / RFU, MARS / Fold change vs veh, MARS / RFU, ZNF655 / Fold change vs veh, ZNF655 / RFU, FAHD1 / Fold change vs veh, FAHD1 / RFU, BDP1 / Fold change vs veh, BDP1 / RFU, LRRCC1 / Fold change vs veh, LRRCC1 / RFU, ARID1A / Fold change vs veh, ARID1A / RFU, ZNF146 / Fold change vs veh, ZNF146 / RFU, ZNF330 / Fold change vs veh, ZNF330 / RFU, GPN3 / Fold change vs veh, GPN3 / RFU, C9orf123 / Fold change vs veh, C9orf123 / RFU, N4BP2L2 / Fold change vs veh, N4BP2L2 / RFU, ARFIP1 / Fold change vs veh, ARFIP1 / RFU, FAM179B / Fold change vs veh, FAM179B / RFU, BCL10 / Fold change vs veh, BCL10 / RFU, UHRF1BP1L / Fold change vs veh, UHRF1BP1L / RFU, BET1 / Fold change vs veh, BET1 / RFU, CNOT2 / Fold change vs veh, CNOT2 / RFU, ZNF268 / Fold change vs veh, ZNF268 / Fold change vs veh, ZNF507 / RFU, DGCR2 / Fold change vs veh, DGCR2 / RFU, WDSUB1 / Fold change vs veh, WDSUB1 / Fold change vs veh, HSP90B1 /// MIR3652 / RFU, ADSS / Fold change vs veh, ADSS / RFU, GK / Fold change vs veh, GK / RFU, ZNF148 / Fold change vs veh, ZNF148 / RFU, TAF9 / Fold change vs veh, TAF9 / RFU, SLC1A5 / Fold change vs veh, SLC1A5 / RFU, SLMO2 / Fold change vs veh, SLMO2 / RFU, ABCC4 / Fold change vs veh, ABCC4 / RFU, LOC101060439 /// RAP1B / Fold change vs veh, LOC101060439 /// RAP1B / RFU, RFX7 / Fold change vs veh, RFX7 / RFU, GTPBP10 / Fold change vs veh, GTPBP10 / RFU, CNEP1R1 / Fold change vs veh, CNEP1R1 / RFU, BIVM-ERCC5 /// ERCC5 / Fold change vs veh, BIVM-ERCC5 /// ERCC5 / RFU, ILF3 / Fold change vs veh, ILF3 / RFU 11762660_at / Fold change /veh 11762660_at / RFU VCAN (11757783_s_at) / Fold change /veh VCAN (11757783_s_at) / RFU DDX43 (11728927_at) / Fold change /veh DDX43 (11728927_at) / RFU KRT8 (11758188_x_at) / Fold change /veh KRT8 (11758188_x_at) / RFU NKD1 (11759106_at) / Fold change /veh NKD1 (11759106_at) / RFU SRD5A1 (11742802_a_at) / Fold change /veh SRD5A1 (11742802_a_at) / RFU TPSAB1 /// TPSB2 (11721975_s_at) / Fold change /veh TPSAB1 /// TPSB2 (11721975_s_at) / RFU GSTM3 (11746129_a_at) / Fold change /veh GSTM3 (11746129_a_at) / RFU IL23R (11737362_x_at) / Fold change /veh IL23R (11737362_x_at) / RFU TMEM51 (11727254_a_at) / Fold change /veh TMEM51 (11727254_a_at) / RFU PIWIL2 (11732686_x_at) / Fold change /veh PIWIL2 (11732686_x_at) / RFU ORM1 (11744905_x_at) / Fold change /veh ORM1 (11744905_x_at) / RFU CCDC152 (11743942_at) / Fold change /veh CCDC152 (11743942_at) / RFU ECM1 (11717891_a_at) / Fold change /veh ECM1 (11717891_a_at) / RFU IL23R (11748794_a_at) / Fold change /veh IL23R (11748794_a_at) / RFU TNFAIP8L3 (11732012_x_at) / Fold change /veh TNFAIP8L3 (11732012_x_at) / RFU MBOAT4 (11741988_at) / Fold change /veh MBOAT4 (11741988_at) / RFU 11764193_at / Fold change /veh 11764193_at / RFU TMEM53 (11763286_at) / Fold change /veh TMEM53 (11763286_at) / RFU MAGEB2 (11727129_at) / Fold change /veh MAGEB2 (11727129_at) / RFU TMEM200A (11744735_a_at) / Fold change /veh TMEM200A (11744735_a_at) / RFU CCDC152 (11751479_a_at) / Fold change /veh CCDC152 (11751479_a_at) / RFU FAM211A (11726209_a_at) / Fold change /veh FAM211A (11726209_a_at) / RFU RGS16 (11746705_a_at) / Fold change /veh RGS16 (11746705_a_at) / RFU VCAN (11755009_s_at) / Fold change /veh VCAN (11755009_s_at) / RFU RHOB (11743442_s_at) / Fold change /veh RHOB (11743442_s_at) / RFU RGS16 (11720943_a_at) / Fold change /veh RGS16 (11720943_a_at) / RFU RGS16 (11720944_at) / Fold change /veh RGS16 (11720944_at) / RFU, VPS4B / Fold change vs veh, VPS4B / RFU, CREB1 / Fold change vs veh, CREB1 / RFU, DNAJC13 / Fold change vs veh, DNAJC13 / RFU, GNAQ / Fold change vs veh, GNAQ / RFU, CDK5R1 / Fold change vs veh, CDK5R1 / RFU, ZRANB3 / Fold change vs veh, ZRANB3 / RFU, CUL4A / Fold change vs veh, CUL4A / RFU, CCNY / Fold change vs veh, CCNY / RFU, UFL1 / Fold change vs veh, UFL1 / RFU, COG3 / Fold change vs veh, COG3 / RFU, DIAPH2 / Fold change vs veh, DIAPH2 / RFU, SKA2 / Fold change vs veh, SKA2 / RFU, AFF3 / Fold change vs veh, AFF3 / RFU, LMF1 / Fold change vs veh, LMF1 / RFU, IPO11 / Fold change vs veh, IPO11 / RFU, DFFB / Fold change vs veh, DFFB / RFU, FOXP1 / Fold change vs veh, FOXP1 / RFU, CARD8 / Fold change vs veh, CARD8 / RFU, STRN3 / Fold change vs veh, STRN3 / RFU, ADK / Fold change vs veh, ADK / RFU, RASSF2 / Fold change vs veh, RASSF2 / RFU, WIPF1 / Fold change vs veh, WIPF1 / RFU, LARP1B / Fold change vs veh, LARP1B / RFU, RASA1 / Fold change vs veh, RASA1 / RFU, RB1 / Fold change vs veh, RB1 / RFU, PPFIA1 / Fold change vs veh, PPFIA1 / RFU, MAT2A / Fold change vs veh, MAT2A / RFU, CCT5 / Fold change vs veh, CCT5 / RFU, WDR92 / Fold change vs veh, WDR92 / RFU, CUX1 / Fold change vs veh, CUX1 / RFU, TTC7A / Fold change vs veh, TTC7A / RFU, TMEM135 / Fold change vs veh, TMEM135 / RFU, DEPTOR / Fold change vs veh, DEPTOR / RFU, CPM / Fold change vs veh, CPM / RFU, DNAJB6 / Fold change vs veh, DNAJB6 / RFU, CACNA2D3 / Fold change vs veh, CACNA2D3 / RFU, DTX4 / Fold change vs veh, DTX4 / RFU, TFCP2 / Fold change vs veh, TFCP2 / RFU, GMCL1 /// GMCL1P1 / Fold change vs veh, GMCL1 /// GMCL1P1 / RFU, AEBP2 / Fold change vs veh, AEBP2 / RFU, SNHG1 /// SNORD22 /// SNORD25 /// SNORD26 /// SNORD27 /// SNORD28 /// SNORD29 /// SNORD31 / Fold change vs veh, SNHG1 /// SNORD22 /// SNORD25 /// SNORD26 /// SNORD27 /// SNORD28 /// SNORD29 /// SNORD31 / Fold change (Aza/veh), C12orf56 (ProbeSet 11735607_a_at) / Fold change (ACY-1035/veh), C12orf56 (ProbeSet 11735607_a_at) / Fold change (Aza/veh), FGFR1OP (ProbeSet 11751329_s_at) / Fold change (ACY-1035/veh), FGFR1OP (ProbeSet 11751329_s_at) / Fold change (Aza/veh), VPS36 (ProbeSet 11739960_a_at) / Fold change (ACY-1035/veh), VPS36 (ProbeSet 11739960_a_at) / RFU SYPL1 (11715823_x_at) / Fold change /veh SYPL1 (11715823_x_at) / RFU IGFBP7 (11715501_s_at) / Fold change /veh IGFBP7 (11715501_s_at) / RFU REEP3 (11722064_at) / Fold change /veh REEP3 (11722064_at) / RFU IGLL1 (11728026_x_at) / Fold change /veh IGLL1 (11728026_x_at): dose or concentration left out as unconfirmed
Conditions: MV-4-11 cells, 48 hours

## Nc1ncn([C@@H]2O[C@H](CO)[C@@H](O)[C@H]2O)c(=O)n1 [azacitidine]
  RFU LOC100653217 /// NTM (11731650_a_at): 11.58 RFU
